biological target: T1, IL-17A (Homo sapiens, UniProt Q16552); assay: Inhibition of IL-17A induced IL-6 release from dermal fibroblast cell line (HDF cell line assay); type: cell-based; settings: HDF cells stimulated with IL-17A (50 pM) plus TNF-α (25 pM); IL-6 release measured by HTRF
T1 sequence (Q16552 24-155): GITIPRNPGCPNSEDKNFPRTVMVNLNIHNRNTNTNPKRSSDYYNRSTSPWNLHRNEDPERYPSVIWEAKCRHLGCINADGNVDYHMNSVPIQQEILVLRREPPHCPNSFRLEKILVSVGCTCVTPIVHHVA
Excerpt: Inhibition of IL-17A Induced IL-6 Release from Dermal Fibroblast Cell Line
The purpose of this assay is to test the neutralising ability to IL-17 proteins, in a human primary cell system. Stimulation of normal human dermal fibroblasts (HDF) with IL-17 alone produces only a very weak signal but in combination with certain other cytokines, such as TNFα, a synergistic effect can be seen in the production of inflammatory cytokines, i.e. IL-6.
HDFs were stimulated with IL-17A (50 pM) in combination with TNF-α (25 pM). The resultant IL-6 response was then measured using a homogenous time-resolved FRET kit from Cisbio. The kit utilises two monoclonal antibodies, one labelled with Eu-Cryptate (Donor) and the second with d2 or XL665 (Acceptor). The intensity of the signal is proportional to the concentration of IL-6 present in the sample (Ratio is calculated by 665/620×104).
The ability of a compound to inhibit IL-17 induced IL-6 release from human dermal fibroblasts is measured in this assay.
HDF cells (Sigma #106-05n) were cultured in complete media (DMEM+10% FCS+2 mM L-glutamine) and maintained in a tissue culture flask using standard techniques. Cells were harvested from the tissue culture flask on the morning of the assay using TrypLE (Invitrogen #12605036). The TrypLE was neutralised using complete medium (45 mL) and the cells were centrifuged at 300×g for 3 minutes. The cells were re-suspended in complete media (5 mL) counted and adjusted to a concentration of 3.125×10^4 cells/mL before being added to the 384 well assay plate (Corning #3701) at 40 μL per well. The cells were left for a minimum of three hours, at 37° C./5% CO2, to adhere to the plate.
Compounds were serially diluted in DMSO before receiving an aqueous dilution into a 384 well dilution plate (Greiner #781281), where […] from the titration plate was transferred to 45 μL of complete media and mixed to give a solution containing 10% DMSO.
Mixtures of TNFα and IL-17 cytokine were prepared in complete media to final concentrations of TNFα 25 pM/IL-17A 50 pM, then 30 μL of the solution was added to a 384 well reagent plate (Greiner #781281).
10 μL from the aqueous dilution plate was transferred to the reagent plate containing 30 μL of the diluted cytokines, to give a 2.5% DMSO solution. The compounds were incubated with the cytokine mixtures for 5 h at 37° C. After the incubation, 10 μL was transferred to the assay plate, to give a 0.5% DMSO solution, then incubated for 18-20 h at 37° C./5% CO2.
From the Cisbio IL-6 FRET kit (Cisbio #62IL6PEB) europium cryptate and Alexa 665 were diluted in reconstitution buffer and mixed 1:1, as per kit insert. To a white low volume 384 well plate (Greiner #784075) were added FRET reagents (10 μL), then supernatant (10 μL) was transferred from the assay plate to Greiner reagent plate. The mixture was incubated at room temperature for 3 h with gentle shaking (<400 rpm) before being read on a Synergy Neo 2 plate reader (Excitation: 330 nm; Emission: […]).

| IC50 [nM] | Compound | pIC50 |
| --- | --- | --- |
| 31.6 | Cc1nonc1C(=O)N[C@H](c1cn2ncc(C3(N4CC(C(F)(F)F)NC4=O)CCNCC3)nc2n1)C1CCC(F)(F)CC1 (stereo partly drawn) [Example 7, N—[(S)-(4,4-Difluorocyclohexyl)(3-{4-[2-oxo-4-(trifluoromethyl)imidazolidin-1-yl]-piperidin-4-yl}imidazo[1,2-b][1,2,4]triazin-6-yl)methyl]-4-methyl-1,2,5-oxadiazole-3-carboxamide] |  |
| 6.31 | Cc1nonc1C(=O)N[C@H](c1cn2ncc(C3(N4CC(C(F)(F)F)NC4=O)CC(F)(F)C3)nc2n1)C1CCC(F)(F)CC1 (single isomer, unassigned) [Example 1] |  |
| 3.98 | Cc1nonc1C(=O)N[C@H](c1cn2ncc(C3(N4C[C@@H](C(F)(F)F)NC4=O)CCOCC3)nc2n1)C1CCC(F)(F)CC1 (single isomer, unassigned) [Example 4] |  |
| 1000 | Cc1nonc1C(=O)N[C@H](c1cn2ncc(C3(N4C[C@H](C(F)(F)F)NC4=O)CC(F)(F)C3)nc2n1)C1CCC(F)(F)CC1 (single isomer, unassigned) [Example 2] |  |
| 7.94 | Cc1nonc1C(=O)N[C@H](c1cn2ncc(C3(N4CC(C(F)(F)F)NC4=O)CCN(C(=O)OC(C)(C)C)CC3)nc2n1)C1CCC(F)(F)CC1 (stereo partly drawn) [Example 6, tert-Butyl 4-(6-{(S)-(4,4-difluorocyclohexyl)[(4-methyl-1,2,5-oxadiazole-3-carbonyl)-amino]methyl}imidazo[1,2-b][1,2,4]triazin-3-yl)-4-[2-oxo-4-(trifluoromethyl)-imidazolidin-1-yl]piperidine-1-carboxylate] |  |
| 316 | Cc1nonc1C(=O)N[C@H](c1cn2ncc(C3(N4C[C@H](C(F)(F)F)NC4=O)CCN(CC(C)(F)F)CC3)nc2n1)C1CCC(F)(F)CC1 (single isomer, unassigned) [Example 15] |  |
| 200 | Cc1nonc1C(=O)N[C@H](c1cn2ncc(C3(N4C[C@H](C(F)(F)F)NC4=O)CCN(C)CC3)nc2n1)C1CCC(F)(F)CC1 (single isomer, unassigned) [Example 19] |  |
| 10 | Cc1nonc1C(=O)N[C@H](c1cn2ncc(C3(N4C[C@@H](C(F)(F)F)NC4=O)CCN(C)CC3)nc2n1)C1CCC(F)(F)CC1 (single isomer, unassigned) [Example 18] |  |

The remaining lines, values behind:

| Compound | IC50 [nM] | pIC50 |
| --- | --- | --- |
| N—[(S)-(4,4-Difluorocyclohexyl)(3-{(3R)-3-[(4S)-2-oxo-4-(trifluoromethyl)imidazolidin-1-yl]tetrahydrofuran-3-yl}imidazo[1,2-b][1,2,4]triazin-6-yl)methyl]-4-methyl-1,2,5-oxadiazole-3-carboxamide [Example 10] |  | 7.2 |
| N—[(S)-(4,4-Difluorocyclohexyl)(3-{3-[(4S)-2-oxo-4-(trifluoromethyl)imidazolidin-1-yl]-oxetan-3-yl}imidazo[1,2-b][1,2,4]triazin-6-yl)methyl]-4-methyl-1,2,5-oxadiazole-3-carboxamide [Example 8] |  | 7.5 |
| N—[(S)-(4,4-Difluorocyclohexyl)(3-{(3S)-3-f[(4S)-2-oxo-4-(trifluoromethyl)imidazolidin-1-yl]tetrahydrofuran-3-yl}imidazo[1,2-b][1,2,4]triazin-6-yl)methyl]-4-methyl-1,2,5-oxadiazole-3-carboxamide [Example 11] |  | 8.0 |
| Cc1nonc1C(=O)N[C@H](c1cn2ncc(C3(N4C[C@@H](C(F)(F)F)NC4=O)CC3)nc2n1)C1CCC(F)(F)CC1 (single isomer, unassigned) [Example 3] | 631 |  |
| N—[(S)-(4,4-Difluorocyclohexyl)(3-{(3R)-3-[(4R)-2-oxo-4-(trifluoromethyl)imidazolidin-1-yl]tetrahydrofuran-3-yl}imidazo[1,2-b][1,2,4]triazin-6-yl)methyl]-4-methyl-1,2,5-oxadiazole-3-carboxamide [Example 12] |  | 6.2 |
| Cc1nonc1C(=O)N[C@H](c1cn2ncc(C3(N4C[C@H](C(F)(F)F)NC4=O)CCN(CC(C)(C)F)CC3)nc2n1)C1CCC(F)(F)CC1 (single isomer, unassigned) [Example 17] | 251 |  |
| Cc1nonc1C(=O)N[C@H](c1cn2ncc(C3(N4C[C@@H](C(F)(F)F)NC4=O)CCN(CC(C)(C)F)CC3)nc2n1)C1CCC(F)(F)CC1 (single isomer, unassigned) [Example 16] | 3.98 |  |
| Cc1nonc1C(=O)N[C@H](c1cn2ncc([C@@]3(N4C[C@H](C(F)(F)F)NC4=O)CCOC3)nc2n1)C1CCC(F)(F)CC1 (single isomer, unassigned) [Example 13] | 7940 |  |
| N—[(S)-(4,4-Difluorocyclohexyl)(3-{3-[(4R)-2-oxo-4-(trifluoromethyl)imidazolidin-1-yl]-oxetan-3-yl}imidazo[1,2-b][1,2,4]triazin-6-yl)methyl]-4-methyl-1,2,5-oxadiazole-3-carboxamide [Example 9] |  | 5.0 |
| Cc1nonc1C(=O)N[C@H](c1cn2ncc(C3(N4C[C@H](C(F)(F)F)NC4=O)CCOCC3)nc2n1)C1CCC(F)(F)CC1 (single isomer, unassigned) [Example 5] | 2000 |  |
| Cc1nonc1C(=O)N[C@H](c1cn2ncc(C3(N4C[C@@H](C(F)(F)F)NC4=O)CCN(CC(C)(F)F)CC3)nc2n1)C1CCC(F)(F)CC1 (single isomer, unassigned) [Example 14] | 3.98 |  |

Reference: US20260028341A1, “IMIDAZOTRIAZINE DERIVATIVES AS IL-17 MODULATORS” (UCB BIOPHARMA SRL, priority 2022, published 2026)
